The experiment concerns MOLM-13 cells. Kind of experiment: MOLM-13 cell viability assay (CellTiter-Glo). Format: cell-based. Conditions: Homo sapiens, MOLM-13, 72 h, 3 days, concentration of 1 μM, read-out: Antiproliferative Activity (inhibition, MOLM-13 cell viability). The method in brief: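 Luminescent ATP read-out (CellTiter-Glo, 10 min with shaking) after 3-day compound or DMSO exposure at 37° C, 5% CO2. Cells plated at 2,500/well in RPMI 1640 plus 10% FBS.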
In general terms: In ATP-based viability assays light output follows the ATP content of the culture.
Regarding `CC(C)(C)c1ccc(C(=O)C(=O)NCc2c(F)ccc3c2CN(C2CCC(=O)NC2=O)C3=O)cc1` (stereo not drawn) [Compound I-50, 2-(4-(tert-butyl)phenyl)-N-((2-(2,6-dioxopiperidin-3-yl)-5-fluoro-1-oxoisoindolin-4-yl)methyl)-2-oxoacetamide], the cytotoxicity at 1 µM is less than 25%.

For `CC(C)c1cccc(NC(=O)NCc2cc3c(s2)C(=O)N(C2CCC(=O)NC2=O)C3)c1` (stereo not drawn) [II-70, 1-((5-(2,6-dioxopiperidin-3-yl)-6-oxo-5,6-dihydro-4H-thieno[2,3-c]pyrrol-2-yl)methyl)-3-(3-isopropylphenyl)urea], the cytotoxicity at 1 µM is more than 80%.

As for `CC(C)(C)c1ccc(NC(=O)NCc2scc3c2CN(C2CCC(=O)NC2=O)C3=O)cc1` (stereo not drawn) [II-148, 1-(4-(tert-butyl)phenyl)-3-((5-(2,6-dioxopiperidin-3-yl)-4-oxo-5,6-dihydro-4H-thieno[3,4-c]pyrrol-1-yl)methyl)urea], the cytotoxicity at 1 µM was more than 80%.

Turning to `Cc1ccc(N(C)C(=O)NCc2scc3c2CN(C2CCC(=O)NC2=O)C3=O)cc1Cl` (stereo not drawn) [II-22, 1-(3-chloro-4-methylphenyl)-3-((5-(2,6-dioxopiperidin-3-yl)-4-oxo-5,6-dihydro-4H-thieno[3,4-c]pyrrol-1-yl)methyl)-1-methylurea], the cytotoxicity at 1 µM was in the range of 50 to 80%.

As for `Cc1cc(NC(=O)NCc2cc3c(s2)C(=O)N(C2CCC(=O)NC2=O)C3)ccc1N(C)C` (stereo not drawn) [II-59, 1-(4-(dimethylamino)-3-methylphenyl)-3-((5-(2,6-dioxopiperidin-3-yl)-6-oxo-5,6-dihydro-4H-thieno[2,3-c]pyrrol-2-yl)methyl)urea], the cytotoxicity at 1 µM is less than 25%.

On to `O=C1CCC(N2Cc3cc(CNC(=O)C(F)(F)c4ccc(C5(C(F)(F)F)CC5)cc4)ccc3C2=O)C(=O)N1` (stereo not drawn) [II-164, N-((2-(2,6-dioxopiperidin-3-yl)-1-oxoisoindolin-5-yl)methyl)-2,2-difluoro-2-(4-(1-(trifluoromethyl)cyclopropyl)phenyl)acetamide], for which the cytotoxicity at 1 µM was more than 80%.

As to `CC(C)c1ccc(C(=O)C(=O)NCc2scc3c2CN(C2CCC(=O)NC2=O)C3=O)cc1` (stereo not drawn) [Compound I-14, 2-(4-isopropylphenyl)-N-((5-(2,6-dioxopiperidin-3-yl)-4-oxo-5,6-dihydro-4H-thieno[3,4-c]pyrrol-1-yl)methyl)-2-oxoacetamide], the cytotoxicity at 1 µM lay within 25 to 50%.

As to `Cc1ccc(NC(=S)NCc2cc3c(s2)C(=O)N(C2CCC(=O)NC2=O)C3)cc1Cl` (stereo not drawn) [II-39, 1-(3-chloro-4-methylphenyl)-3-((5-(2,6-dioxopiperidin-3-yl)-6-oxo-5,6-dihydro-4H-thieno[2,3-c]pyrrol-2-yl)methyl)thiourea], the cytotoxicity at 1 µM was more than 80%.

As to `Cc1ccc(NC(=O)NCc2cc3c(s2)C(=O)N(C2CCC(=O)NC2=O)C3)cc1CN(C)C` (stereo not drawn) [II-51, 1-(3-((dimethylamino)methyl)-4-methylphenyl)-3-((5-(2,6-dioxopiperidin-3-yl)-6-oxo-5,6-dihydro-4H-thieno[2,3-c]pyrrol-2-yl)methyl)urea], the cytotoxicity at 1 µM was less than 25%.

For `Cc1ccc(NC(=O)NCc2cc3c(s2)C(=O)N(C2CCC(=O)N(COP(=O)(OC(C)(C)C)OC(C)(C)C)C2=O)C3)cc1N(C)C` (stereo not drawn) [II-105, di-tert-butyl ((3-(2-((3-(3-(dimethylamino)-4-methylphenyl)ureido)-methyl)-6-oxo-4,6-dihydro-5H-thieno[2,3-c]pyrrol-5-yl)-2,6-dioxopiperidin-1-yl)methyl) phosphate], the cytotoxicity at 1 µM was less than 25%.

In the case of `CC(c1ccc(C(=O)C(=O)NCc2scc3c2CN(C2CCC(=O)NC2=O)C3=O)cc1)C(F)(F)F` (stereo not drawn) [Compound I-36, N-((5-(2,6-dioxopiperidin-3-yl)-4-oxo-5,6-dihydro-4H-thieno[3,4-c]pyrrol-1-yl)methyl)-2-oxo-2-(4-(1,1,1-trifluoropropan-2-yl)phenyl)acetamide], the cytotoxicity at 1 µM lay in the range of 25 to 50%.

On to `O=C1CCC(N2Cc3cc(CCNC(=O)C(=O)c4ccc(C5(C(F)(F)F)CC5)cc4)ccc3C2=O)C(=O)N1` (stereo not drawn) [Compound I-52, N-(2-(2-(2,6-Dioxopiperidin-3-yl)-1-oxoisoindolin-5-yl)ethyl)-2-oxo-2-(4-(1-(trifluoromethyl)cyclopropyl)phenyl)acetamide], for which the cytotoxicity at 1 µM was in the range of 25 to 50%.

In the case of `O=C1CCC(N2Cc3c(csc3CNC(=S)Nc3c(Cl)c(Cl)cc(Cl)c3Cl)C2=O)C(=O)N1` (stereo not drawn) [II-123, 1-((5-(2,6-dioxopiperidin-3-yl)-4-oxo-5,6-dihydro-4H-thieno[3,4-c]pyrrol-1-yl)methyl)-3-(2,3,5,6-tetrachlorophenyl)thiourea], the cytotoxicity at 1 µM is less than 25%.

As to `CN(C)c1ccc(CCCC(=O)NCc2scc3c2CN(C2CCC(=O)NC2=O)C3=O)cc1` (stereo not drawn) [II-85, 4-(4-(dimethylamino)phenyl)-N-((5-(2,6-dioxopiperidin-3-yl)-4-oxo-5,6-dihydro-4H-thieno[3,4-c]pyrrol-1-yl)methyl)butanamide], the cytotoxicity at 1 µM is less than 25%.

As to `Cc1ccc(CCCC(=O)NCc2scc3c2CN(C2CCC(=O)NC2=O)C3=O)cc1Cl` (stereo not drawn) [II-41, 4-(3-chloro-4-methylphenyl)-N-((5-(2,6-dioxopiperidin-3-yl)-4-oxo-5,6-dihydro-4H-thieno[3,4-c]pyrrol-1-yl)methyl)butanamide], the cytotoxicity at 1 µM fell in the range of 25 to 50%.

Regarding `Cc1cc(C)c(C(=O)C(=O)NCc2cccc3c2CN(C2CCC(=O)NC2=O)C3=O)c(C)c1` (stereo not drawn) [Compound I-80, 2-(2,4,6-trimethylphenyl)-N-((2-(2,6-dioxopiperidin-3-yl)-1-oxoisoindolin-4-yl)methyl)-2-oxoacetamide], the cytotoxicity at 1 µM is less than 25%.

For the molecule `O=C1CCC(N2Cc3cc(CNC(=O)C(=O)c4cccc(Cl)c4)ccc3C2=O)C(=O)N1` (stereo not drawn) [Compound I-91, 2-(3-chlorophenyl)-N-((2-(2,6-dioxopiperidin-3-yl)-1-oxoisoindolin-5-yl)methyl)-2-oxoacetamide], the cytotoxicity at 1 µM is more than 80%.

For the molecule `O=C(Cc1cccc(N2CCCCC2)c1)NCc1scc2c1CN(C1CCC(=O)NC1=O)C2=O` (stereo not drawn) [II-76, N-((5-(2,6-dioxopiperidin-3-yl)-4-oxo-5,6-dihydro-4H-thieno[3,4-c]pyrrol-1-yl)methyl)-2-(3-(piperidin-1-yl)phenyl)acetamide], the cytotoxicity at 1 µM was more than 80%.

As for `Cc1ccc(CC(=O)NCc2cc3c(s2)CN(C2CCC(=O)NC2=O)C3=O)cc1Cl` (stereo not drawn) [II-79, 2-(3-chloro-4-methylphenyl)-N-((5-(2,6-dioxopiperidin-3-yl)-4-oxo-5,6-dihydro-4H-thieno[2,3-c]pyrrol-2-yl)methyl)acetamide], the cytotoxicity at 1 µM was less than 25%.

`CC(C)(C)c1ccc(C(=O)C(=O)NCc2c(F)c(F)cc3c2CN(C2CCC(=O)NC2=O)C3=O)cc1` (stereo not drawn) [Compound I-51, 2-(4-(tert-butyl)phenyl)-N-((2-(2,6-dioxopiperidin-3-yl)-5,6-difluoro-1-oxoisoindolin-4-yl)methyl)-2-oxoacetamide]: the cytotoxicity at 1 µM is less than 25%.

As to `Cc1ccc(NC(=O)NCc2cc3c(s2)C(=O)N(C2CCC(=O)N(COC(=O)[C@H](N)C(C)C)C2=O)C3)cc1N(C)C` (stereo partly drawn) [II-81, (3-(2-((3-(3-(dimethylamino)-4-methylphenyl)ureido)methyl)-6-oxo-4,6-dihydro-5H-thieno[2,3-c]pyrrol-5-yl)-2,6-dioxopiperidin-1-yl)methyl D-valinate], the cytotoxicity at 1 µM was more than 80%.

(Values after patent US11345712B2, “Protein-targeting compounds and pharmaceutical compositions thereof, and their therapeutic applications” (BioTheryX, Inc., priority 2019, dated 2022).)
